Source: patent publication US8748412B2, “Phenylalanine derivatives and their use as non-peptide GLP-1 receptor modulators” (Argusina Bioscience Inc., priority 2011, dated 2014)
Where two headings read alike, the source gives them in different places.

Target: T1, human GLP1R (Homo sapiens, UniProt P43220)
T1 construct: expressed in transfected cells; host or cells: CHO cells (ATCC), transient transfection with pCMV-human GLP1R
Assay: Human GLP-1 receptor transfected cell assay (MRE/CRE-luciferase reporter gene, agonist activity)
Assay type: cell-based
Conditions: 6 h; for activation at 10 µM: conc. 10 μM
Outline: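 CHO cells transiently co-transfected with human GLP1R and MRE/CRE-driven luciferase reporter plasmids. Compound or GLP-1 (7-36 amide) standard dilution series added for 6 h at 37 °C, 5% CO2. Agonist activity read as Bright-Glo luciferase luminescence.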

[1] = percentage of the activity of the control, read-out: Agonist Activity
[2] = conc. 3.16 μM, percentage of the activity of the control, read-out: Agonist Activity

T1 sequence (P43220 24-463): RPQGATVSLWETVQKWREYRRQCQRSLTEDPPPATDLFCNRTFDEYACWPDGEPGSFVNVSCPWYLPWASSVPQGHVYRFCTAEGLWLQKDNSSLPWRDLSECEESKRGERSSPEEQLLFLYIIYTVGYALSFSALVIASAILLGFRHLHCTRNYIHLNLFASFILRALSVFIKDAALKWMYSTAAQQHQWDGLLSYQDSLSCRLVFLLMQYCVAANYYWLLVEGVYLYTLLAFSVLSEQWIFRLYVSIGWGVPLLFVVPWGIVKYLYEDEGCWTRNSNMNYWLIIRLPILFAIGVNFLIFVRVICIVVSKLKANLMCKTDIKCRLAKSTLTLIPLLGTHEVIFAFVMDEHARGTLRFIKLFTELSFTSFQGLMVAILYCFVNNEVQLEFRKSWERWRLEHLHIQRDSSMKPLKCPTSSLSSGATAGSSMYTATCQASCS

Row | SMILES | activation at 10 µM [1] [%] | further results
1 | CC(C)(C)OC(=O)Nc1ccc(-c2nc(-c3ccc(CC(NC(=O)N4CCN(c5cccc(Cl)c5)CC4)C(=O)O)cc3F)no2)cc1 (stereo not shown) [Compound 12C] | > 60 | 
2 | CC(C)(C)OC(=O)Nc1ccc(-c2nc(-c3ccc(CC(NC(=O)N4CCN(c5ccccc5C#N)CC4)C(=O)O)cc3F)no2)cc1 (stereo not shown) [Compound 12D] | > 60 | 
3 | Cc1ccc(-c2ccc(C(=O)N[C@@H](Cc3ccc(-c4noc(-c5ccc(NC(=O)OC(C)(C)C)cc5)n4)c(F)c3)C(=O)O)o2)cc1 [Compound 12E] |  | activation at 3.16 µM (concentration 3.16 μM, read-out: Activity (agonist), percentage of the activity of the control): > 60%
4 | CC(C)(C)OC(=O)Nc1ccc(-c2nc(-c3ccc(CC(NC(=O)N4CCN(c5cccc(C(F)(F)F)c5)CC4)C(=O)O)cc3F)no2)cc1 (stereo not shown) [Compound 12F] | > 60 | 
5 | COc1ccc(-c2cc(NC(=O)NC(Cc3ccc(-c4noc(-c5ccc(NC(=O)OC(C)(C)C)cc5)n4)c(F)c3)C(=O)O)[nH]n2)cc1 (stereo not shown) [Compound 12H] | > 60 | 
6 | CC(C)(C)OC(=O)Nc1ccc(-c2nc(-c3ccc(CC(NC(=O)Nc4cc(-c5ccc(F)cc5)n[nH]4)C(=O)O)cc3F)no2)cc1 (stereo not shown) [Compound 12I] | > 60 | 
7 | CC(C)(C)OC(=O)Nc1ccc(-c2nc(-c3ccc(CC(NC(=O)N4CCN(c5ccc(Cl)cc5)CC4)C(=O)O)cc3F)no2)cc1 (stereo not shown) [Compound 13A] | > 60 | 
8 | CC(C)(C)OC(=O)Nc1ccc(-c2nc(-c3ccc(CC(NC(=O)c4ccc(-c5ccccn5)s4)C(=O)O)cc3F)no2)cc1 (stereo not shown) [Compound 13B] | > 60 | 
9 | CC(C)(C)OC(=O)Nc1ccc(-c2nc(-c3ccc(CC(NC(=O)Nc4ccccc4)C(=O)O)cc3F)no2)cc1 (stereo not shown) [Compound 13D] | 40 to 60 | 
10 | Cc1ccc(-c2ccc(C(=O)NC(Cc3ccc(-c4noc(-c5ccc(NC(=O)OC(C)(C)C)cc5)n4)c(F)c3F)C(=O)O)o2)cc1 (stereo not shown) [Compound 13F] | > 60 | 
11 | Cc1ccc(-c2ccc(C(=O)NC(Cc3ccc(-c4noc(-c5ccc(NC(=O)OC(C)(C)C)cc5)n4)c(Br)c3)C(=O)O)o2)cc1 (stereo not shown) [Compound 13G] |  | activation at 3.16 µM [2]: > 60%
12 | CC(C)(C)OC(=O)Nc1ccc(-c2nc(-c3ccc(CC(NC(=O)Nc4ccc(C(F)(F)F)cc4)C(=O)O)cc3F)no2)cc1 (stereo not shown) [Compound 13H] | > 60 | 
13 | Cc1ccc(-c2ccc(C(=O)NC(Cc3ccc(-c4noc(-c5ccc(NC(=O)OC(C)(C)C)cc5)n4)c(C#N)c3)C(=O)O)o2)cc1 (stereo not shown) [Compound 13I] | 40 to 60 | 
14 | Cc1ccc(N2CCC(NC(=O)NC(Cc3ccc(-c4noc(-c5ccc(NC(=O)OC(C)(C)C)cc5)n4)c(F)c3)C(=O)O)C2)cc1 (stereo not shown) [Compound 13P] | > 60 | 
15 | CC(C)(C)OC(=O)Nc1ccc(-c2nc(-c3ccc(CC(NC(=O)Nc4cc(-c5ccc(F)c(Br)c5)n[nH]4)C(=O)O)cc3F)no2)cc1 (stereo not shown) [Compound 13S] | > 60 | 
16 | Cc1ccc(-c2ccc(C(=O)NC(Cc3ccc(-c4noc(-c5ccc(NC(=O)OC(C)(C)C)cc5F)n4)c(F)c3)C(=O)O)o2)cc1 (stereo not shown) [Compound 14A] | > 60 | 
17 | Cc1ccc(-c2ccc(C(=O)NC(Cc3ccc(-c4noc(-c5ccc(NC(=O)OC(C)(C)C)c(C)c5)n4)c(F)c3)C(=O)O)o2)cc1 (stereo not shown) [Compound 14D] | 40 to 60 | 
18 | Cc1ccc(-c2ccc(C(=O)NC(Cc3ccc(-c4nnc(-c5ccc(NC(=O)OC(C)(C)C)cc5)o4)c(F)c3)C(=O)O)o2)cc1 (stereo not shown) [Compound 14F] |  | activation at 3.16 µM [2]: 40 to 60%
19 | COc1ccc(-c2cncc(C(=O)NC(Cc3ccc(-c4noc(-c5ccc(NC(=O)OC(C)(C)C)cc5)n4)c(F)c3)C(=O)O)c2)cc1 (stereo not shown) [Compound 14G] | > 60 | 
20 | CC(C)(C)OC(=O)Nc1ccc(-c2nc(-c3ccc(CC(NC(=O)c4cncc(-c5ccc(F)cc5)c4)C(=O)O)cc3F)no2)cc1 (stereo not shown) [Compound 14H] |  | activation at 3.16 µM [2]: > 60%

Now from value to molecule, other results behind:

Row | activation at 10 µM [1] [%] | SMILES | further results
21 | > 60 | Cc1ccc(-c2cc(NC(=O)NC(Cc3ccc(-c4noc(-c5ccc(NC(=O)OC(C)(C)C)cc5)n4)c(F)c3)C(=O)O)[nH]n2)cc1 (stereo not shown) [Compound 12G] | 
22 | > 60 | CC(C)(C)OC(=O)Nc1ccc(-c2nc(-c3ccc(CC(NC(=O)Nc4ccc(-c5ccc(C(F)(F)F)cc5)cn4)C(=O)O)cc3F)no2)cc1 (stereo not shown) [Compound 13K] | 
23 | > 60 | Cc1cccc(-c2ccc(NC(=O)NC(Cc3ccc(-c4noc(-c5ccc(NC(=O)OC(C)(C)C)cc5)n4)c(F)c3)C(=O)O)nc2)c1 (stereo not shown) [Compound 13L] | 
24 | > 60 | Cc1ccc(-c2ccc(NC(=O)NC(Cc3ccc(-c4noc(-c5ccc(NC(=O)OC(C)(C)C)cc5)n4)c(F)c3)C(=O)O)nc2)cc1Cl (stereo not shown) [Compound 13M] | 
25 | > 60 | CC(C)(C)OC(=O)Nc1ccc(-c2nc(-c3ccc(CC(NC(=O)Nc4ccc(-c5ccc(OC(F)(F)F)cc5)cn4)C(=O)O)cc3F)no2)cc1 (stereo not shown) [Compound 13N] | 
26 | 40 to 60 | CC(C)c1ccc(-c2ccc(NC(=O)NC(Cc3ccc(-c4noc(-c5ccc(NC(=O)OC(C)(C)C)cc5)n4)c(F)c3)C(=O)O)nc2)cc1 (stereo not shown) [Compound 13O] | 
27 | > 60 | CC(C)(C)OC(=O)Nc1ccc(-c2nc(-c3ccc(CC(NC(=O)c4cccc(-c5ccc(Cl)cc5)c4)C(=O)O)cc3F)no2)cc1 (stereo not shown) [Compound 13Q] | 
28 | > 60 | Cc1ccc(-c2cccc(NC(=O)NC(Cc3ccc(-c4noc(-c5ccc(NC(=O)OC(C)(C)C)cc5)n4)c(F)c3)C(=O)O)c2)cc1 (stereo not shown) [Compound 13R] | 
29 | > 60 | CC(C)(C)OC(=O)Nc1ccc(-c2nc(-c3ccc(CC(NC(=O)Nc4ccc(-c5ccccc5F)cn4)C(=O)O)cc3F)no2)cc1 (stereo not shown) [Compound 13T] | 
30 | > 60 | Cc1ccccc1-c1ccc(NC(=O)NC(Cc2ccc(-c3noc(-c4ccc(NC(=O)OC(C)(C)C)cc4)n3)c(F)c2)C(=O)O)nc1 (stereo not shown) [Compound 13U] | 
31 | > 60 | CC(C)(C)OC(=O)Nc1ccc(-c2nc(-c3ccc(CC(NC(=O)Nc4ccc(-c5cccc(Cl)c5)cn4)C(=O)O)cc3F)no2)cc1 (stereo not shown) [Compound 13V] | 
32 | > 60 | CC(C)(C)OC(=O)Nc1ccc(-c2nc(-c3ccc(CC(NC(=O)Nc4ccc(-c5cccc(F)c5)cn4)C(=O)O)cc3F)no2)cc1 (stereo not shown) [Compound 13W] | 
33 | > 60 | CC(C)(C)OC(=O)Nc1ccc(-c2nc(-c3ccc(CC(NC(=O)Nc4ccc(-c5ccccc5)cn4)C(=O)O)cc3F)no2)cc1 (stereo not shown) [Compound 13X] | 
34 | > 60 | COc1ccc(-c2ccc(NC(=O)NC(Cc3ccc(-c4noc(-c5ccc(NC(=O)OC(C)(C)C)cc5)n4)c(F)c3)C(=O)O)nc2)cc1 (stereo not shown) [Compound 13Y] | 
35 | > 60 | CC(C)(C)OC(=O)Nc1ccc(-c2nc(-c3ccc(CC(NC(=O)Nc4ccc(-c5cccs5)cn4)C(=O)O)cc3F)no2)cc1 (stereo not shown) [Compound 13Z] | 
36 | > 60 | Cc1ccc(-c2cncc(C(=O)NC(Cc3ccc(-c4noc(-c5ccc(NC(=O)OC(C)(C)C)cc5)n4)c(F)c3)C(=O)O)c2)cc1 (stereo not shown) [Compound 14B] | 
37 | > 60 | Cc1ccc(-c2cc(C(=O)NC(Cc3ccc(-c4noc(-c5ccc(NC(=O)OC(C)(C)C)cc5)n4)c(F)c3)C(=O)O)ccn2)cc1 (stereo not shown) [Compound 14C] | 
